# Ends that are not written are not given here.
# Key:
# [1] = test system: skin mast cells; test: Skin mast cell degranulation at injection site, light microscopy (toluidine blue); type: in vivo, rat; settings: for Mast Cell Degranulation, Deg. MC: count of degranulated mast cells
# Excerpt: 4. In other rats, the skin was rapidly removed at the end of the injection period and was fixed in 4% paraformaldehyde for light microscopy (Theoharides et al., Int. Arch. Allergy Immunol. 102:352 (1993)), which is incorporated herein by reference in its entirety. The tissue was then frozen and thin sections (7 μ) were cut using a cryostat (Jung CM 3000, Leica, Luc. Deerfield, Ill.). The sections were stained with acidified (pH<2.5) toluidine blue (Sigma, St. Louis) and all mast cells were counted, by two different researchers blinded to the experimental conditions, at 400× magnification using a Diaphot inverted Nikon microscope (Don Santo, Mass.).
# [2] = test system: skin mast cells; test: Effect of drug pretreatment on dye extravasation induced by CRH; type: in vivo, rat; settings: for Dye Extravasation (color intensity) by CRH after drug pretreatment: drug 10^-4 M pretreatment, then CRH 10^-4 M, n = 3
# Procedure: (§1) 1. For extravasation experiments, male Sprague/Dawley rats, each weighing approximately 350 g (Taconic Farms, Germantown, N.Y.), were anesthetized with a single intraperitoneal injection of 0.5 ml ketamine and 0.5 ml xylazine (20 mg/ml each) and then injected intravenously with 0.1 ml of 1% Evan's blue 60 min prior to treatment.
# (§2) 3. The pretreatment solution, when appropriate, was drawn first in the syringe followed by CRH from which it was separated by an air bubble. The pretreatment solution was injected first and was allowed to remain in the skin for 1 min; the needle was then changed, the air bubble ejected and CRH was injected and allowed to stay in the skin for 5 min. The animal was then killed by asphyxiation over CO2 vapor and decapitated; the skin was removed, turned over and photographed.
# [3] = test system: skin mast cells; test: Ultrastructural analysis of CRH-treated skin mast cells; type: in vivo, rat; settings: CRH-injected sites
# Excerpt: The effect of CRH on both vasodilation and mast cell activation was dose-dependent from 10^-4 M-10^-8 M (Table 1).
# [4] = test system: skin mast cells; test: Dye (Evan's blue) extravasation after intradermal injection; type: in vivo, rat
# Procedure: as §1, §2
# [5] = test system: peritoneal mast cells; test: Histamine release from purified peritoneal mast cells; type: cell-based, rat
# [6] = test system: skin mast cells; test: Skin mast cell activation by CRH in rats treated neonatally with capsaicin; type: in vivo, rat; settings: CRH 10^-4 M, neonatal capsaicin
# [7] = test system: pleural mast cells; test: Histamine release from purified pleural mast cells; type: cell-based, rat
compound,measurement,setting,value
"[D-Phe^12 Nle^21,38, Ala^32 ]rCRH(12-41) [CRH-α]","Mast Cell Degranulation, % total deg.",[1]; 10^-4 M,25 % total
same,"Mast Cell Degranulation, Deg. MC",[1]; 10^-4 M,28
same,inhibition of dye extravasation by CRH,"[2]; antagonist 10^-4 M, CRH 10^-6 M",could not inhibit
same,block of the effect of CRH,[2]; plasma extravasation and mast cell degranulation,did not block
"OCCOCCN1CCN(C(c2ccccc2)c2ccc(Cl)cc2)CC1 (stereo not drawn) [Hydroxyzine, hydroxyzine]",Dye Extravasation (color intensity) by CRH after drug pretreatment,[2],blocked the CRH effect entirely
"CC(C)(C)c1ccc(C(O)CCCN2CCC(C(O)(c3ccccc3)c3ccccc3)CC2)cc1 (stereo not drawn) [Terfenadine, terfenadine]",Dye Extravasation (color intensity) by CRH after drug pretreatment,[2],reduced the CRH effect slightly
"CN(C)CCC=C1c2ccccc2COc2ccccc21 [Doxepin, doxepin]",Dye Extravasation (color intensity) by CRH after drug pretreatment,[2],blocked the CRH effect entirely
"Corticotropin-Releasing Hormone (SEEPPISLDLTFHLLREVLEMARAEQLAQQAHSNRKLMEII; ends and bridges not checked; UniProt P06850 154-194, looked up) [CRH, major regulator of the hypothalamic-pituitary-adrenal axis; peptide from Sigma]",ultrastructural signs of mast cell activation (loss of electron dense granule content),[3],obvious sign of activation
same,"Mast Cell Degranulation, Deg. MC",[1]; 10^-4 M,426
same,"Mast Cell Degranulation, % total deg.",[1]; 10^-5 M,37 % total
same,"Mast Cell Degranulation, Deg. MC",[1]; 10^-5 M,327
same,"Mast Cell Degranulation, % total deg.",[1]; 10^-6 M,42 % total
same,"Mast Cell Degranulation, Deg. MC",[1]; 10^-6 M,331
same,"Mast Cell Degranulation, % total deg.",[1]; 10^-7 M,37 % total
same,"Mast Cell Degranulation, Deg. MC",[1]; 10^-7 M,329
same,"Mast Cell Degranulation, % total deg.",[1]; 10^-8 M,32 % total
same,"Mast Cell Degranulation, Deg. MC",[1]; 10^-8 M,254
same,"Mast Cell Degranulation, % total deg.",[1]; 10^-9 M,28 % total
same,"Mast Cell Degranulation, Deg. MC",[1]; 10^-9 M,202
same,"Mast Cell Degranulation, % total deg.",[1]; 10^-10 M,26 % total
same,"Mast Cell Degranulation, Deg. MC",[1]; 10^-10 M,239
same,dose dependence of effect on vasodilation and mast cell activation,[4]; 10^-4 M-10^-8 M,dose-dependent
same,"skin vascular permeability, as evidenced by dye extravasation",[4]; compared with equimolar C48/80 or SP,marked increases
same,"Histamine Release (% total), Peritoneal Calcium",[5]; 10^-4 M,25.5 % total
same,"Histamine Release (% total), Peritoneal + Calcium",[5]; 10^-4 M,6.3 % total
same,"Histamine Release (% total), Peritoneal Calcium",[5]; 10^-5 M,6.9 % total
same,"Histamine Release (% total), Peritoneal + Calcium",[5]; 10^-5 M,1.9 % total
same,"Histamine Release (% total), Peritoneal Calcium",[5]; 10^-6 M,4.9 % total
same,"Histamine Release (% total), Peritoneal + Calcium",[5]; 10^-6 M,2.0 % total
same,effect on peritoneal mast cells (histamine release),[5]; in words,largely ineffective
same,mast cell activation in capsaicin-treated animals,[6],unaffected
same,"Histamine Release (% total), Pleural + Calcium",[7]; 10^-4 M,22.06 % total
same,"Histamine Release (% total), Pleural - Calcium",[7]; 10^-4 M,34.244 % total
same,"Histamine Release (% total), Pleural + Calcium",[7]; 10^-5 M,2.102 % total
same,"Histamine Release (% total), Pleural - Calcium",[7]; 10^-5 M,8.579 % total
same,"Histamine Release (% total), Pleural + Calcium",[7]; 10^-6 M,1.411 % total
same,"Histamine Release (% total), Pleural - Calcium",[7]; 10^-6 M,4.253 % total
same,histamine release from pleural mast cells,"[7]; in words, required absence of extracellular calcium ions",induced histamine release
"C[C@H](N)C(=O)NCC(=O)N[C@H]1CSSC[C@@H](C(=O)O)NC(=O)[C@H](CO)NC(=O)[C@H]([C@@H](C)O)NC(=O)[C@H](Cc2ccccc2)NC(=O)[C@H]([C@@H](C)O)NC(=O)[C@H](CCCCN)NC(=O)[C@H](Cc2c[nH]c3ccccc23)NC(=O)[C@H](Cc2ccccc2)NC(=O)[C@H](Cc2ccccc2)NC(=O)[C@H](CC(N)=O)NC(=O)[C@H](CCCCN)NC1=O [Somatostatin, somatostatin]","fluid extravasation, substance alone",[4]; 10^-12 M,still apparent
same,"fluid extravasation, substance alone","[4]; alone, as strong as that seen with CRH",significant fluid extravasation
same,Dye Extravasation (color intensity) by CRH after drug pretreatment,[2],more dye extravasation than CRH alone
substance P [SP],"Histamine Release (% total), Peritoneal Calcium",[5]; 10^-5 M,39.5 % total
same,"Histamine Release (% total), Pleural + Calcium",[7]; 10^-4 M,49.346 % total
same,"Histamine Release (% total), Pleural - Calcium",[7]; 10^-4 M,54.591 % total
same,"Histamine Release (% total), Pleural + Calcium",[7]; 10^-5 M,22.919 % total
same,"Histamine Release (% total), Pleural - Calcium",[7]; 10^-5 M,28.871 % total
same,"Histamine Release (% total), Pleural + Calcium",[7]; 10^-6 M,2.088 % total
same,"Histamine Release (% total), Pleural - Calcium",[7]; 10^-6 M,8.538 % total
